Assay results reported in US9139616B2, “Isolation, identification, and uses of antifungal compounds” (priority 2010, dated 2015).
In brackets after ≈: the same amount, converted by molar mass. Numbered stars: 1 amine (or outer) side, 2 acyl side, 3 side chain; on linkers, the order of the positions; unused ones are H or OH. Bridge positions count the residues as written; N and C are the ends. Square brackets hold non-standard residues; d marks the D form. Peptide text beside a SMILES is read from it. ξ: configuration not given here. X1 = CCCCCCCCCCCC(O[C@H]1OC[C@H](O)[C@@H](O)[C@@H]1O)C(O)C(O)CC(CC(=O)[*:1])N[*:2]; X2 = CCCCCCCCCCCC(O)C(O)C(O)CC(CC(=O)[*:2])N[*:1]; Asn(3S-OH) = NC(=O)[C@@H](O)[C@H](N)C(=O)O; ξTyr(βOH) = NC(C(=O)O)C(O)c1ccc(O)cc1

Columns and labels:
Experiment in all cases: Microtitre 2-fold serial dilution MIC assay
Format in all cases: cell-based
Saccharomyces cerevisiae = conditions: S. cerevisiae; 30° C., 4 days, turbidity
Experimental: Anti-fungal activity for the present compounds was determined using microtitre format. Microtitre plates (96 wells: rows A-H, columns 1-12) were filled by the following protocol to give 2-fold serial dilutions of each of Bk-1229 and Bk-1097. Samples of Bk-1229 and Bk-1097 were dissolved in 1/10-strength BHIB containing 0.1% (w/v) dimethylsulfoxide (DMSO). Aliquots (50 μL) of 1/10-strength BHIB containing 0.1 (w/v) % DMSO (pH 7.4) were added to all wells except those in column 1. The wells in column 1 received 100 μL of the solutions of Bk-1229 or Bk-1097 and 50 μL was removed and mixed with the medium in the second well. This process was repeated through well 11, at which point an aliquot (50 μL) was removed and discarded. Well 12 was the blank (positive growth) control, BHIB+DMSO only. The test microorganisms employed in this example were Saccharomyces cerevisiae, Candida albicans, and Aspergillus niger, which were obtained from the Virginia Tech Microbiology Culture Collection. Cells of S. cerevisiae and C. albicans were grown in sterile 1/10-strength Brain Heart Infusion Broth (BHIB) and incubated at 30° C. for 18 h. Cells were counted as colony forming units on 1/10-strength BHIB agar. Spore suspensions of A. niger were prepared from lawns of sporulating colonies on 1/10-strength BHIB agar. The number of spores was determined by counting spores microscopically in a Petroff-Hauser counting chamber. The resulting culture or spore suspensions were diluted to 10^5 cells or spores/mL. Following the preparation of the dilution series, 50 μL of microbial inocula (10^5/mL) were added to each well in a row. The concentration of Bk-1229 and Bk-1097 ranged from 50 to 0.05 μg/mL. After the plates were incubated at 30° C. for 4 days, measurement of minimal inhibitory concentration (MIC) results were read by comparing the turbidity (due to microbial growth) of each test well to the positive control wells. The measured MICs for each of burkholdines are summarized as follow: […]

Candida albicans = conditions: C. albicans; 30° C., 4 days, turbidity
Aspergillus niger = conditions: A. niger; 30° C., 4 days, turbidity

Row | Compound | MIC (Saccharomyces cerevisiae) [µg/mL] | MIC (Candida albicans) [µg/mL] | MIC (Aspergillus niger) [µg/mL]
1 | CCCCCCCCCCCC(O)C(O)C(O)CC1CC(=O)N[C@H](CO)C(=O)NC(C(O)c2ccc(O)cc2)C(=O)N[C@H](CC(N)=O)C(=O)NCC(=O)N[C@@H](CC(N)=O)C(=O)N[C@@H](CO)C(=O)N[C@@H]([C@H](O)C(N)=O)C(=O)N1 (stereo partly drawn) [Bk-1097 (2), burkholdine 1097] (cyclo(GNS[Asn(3S-OH)][X2][dS][ξTyr(βOH)][dN])) | 1.6 (≈ 1.46 µM) | 12.5 (≈ 11.4 µM) | 1.6 (≈ 1.46 µM)
2 | CCCCCCCCCCCC(O[C@H]1OC[C@H](O)[C@@H](O)[C@@H]1O)C(O)C(O)CC1CC(=O)N[C@H](CO)C(=O)NC(C(O)c2ccc(O)cc2)C(=O)N[C@H](CC(N)=O)C(=O)NCC(=O)N[C@@H](CC(N)=O)C(=O)N[C@@H](CO)C(=O)N[C@@H]([C@H](O)C(N)=O)C(=O)N1 (stereo partly drawn) [Bk-1229 (1), burkholdine 1229] ([dS][ξTyr(βOH)][dN]GNS[Asn(3S-OH)]; linker N-C via X1) | 0.4 (≈ 0.325 µM) | 12.5 (≈ 10.2 µM) | 12.5 (≈ 10.2 µM)
3 | C[C@@H]1[C@H](O)[C@@H](C)/C=C/C=C/C=C/C=C/C=C/C=C/C=C/[C@H](O[C@@H]2O[C@H](C)[C@@H](O)[C@H](N)[C@@H]2O)C[C@@H]2O[C@](O)(C[C@@H](O)C[C@@H](O)[C@H](O)CC[C@@H](O)C[C@@H](O)CC(=O)O[C@H]1C)C[C@H](O)[C@H]2C(=O)O [Amphetericin B, reference compound] | 25 (≈ 27.1 µM) | 25 (≈ 27.1 µM) | 25 (≈ 27.1 µM)
